pIC50: −log10 of the molar value. Bounds are passed on as bounds.

Chain of c-Kit kinase (P10721 26-976): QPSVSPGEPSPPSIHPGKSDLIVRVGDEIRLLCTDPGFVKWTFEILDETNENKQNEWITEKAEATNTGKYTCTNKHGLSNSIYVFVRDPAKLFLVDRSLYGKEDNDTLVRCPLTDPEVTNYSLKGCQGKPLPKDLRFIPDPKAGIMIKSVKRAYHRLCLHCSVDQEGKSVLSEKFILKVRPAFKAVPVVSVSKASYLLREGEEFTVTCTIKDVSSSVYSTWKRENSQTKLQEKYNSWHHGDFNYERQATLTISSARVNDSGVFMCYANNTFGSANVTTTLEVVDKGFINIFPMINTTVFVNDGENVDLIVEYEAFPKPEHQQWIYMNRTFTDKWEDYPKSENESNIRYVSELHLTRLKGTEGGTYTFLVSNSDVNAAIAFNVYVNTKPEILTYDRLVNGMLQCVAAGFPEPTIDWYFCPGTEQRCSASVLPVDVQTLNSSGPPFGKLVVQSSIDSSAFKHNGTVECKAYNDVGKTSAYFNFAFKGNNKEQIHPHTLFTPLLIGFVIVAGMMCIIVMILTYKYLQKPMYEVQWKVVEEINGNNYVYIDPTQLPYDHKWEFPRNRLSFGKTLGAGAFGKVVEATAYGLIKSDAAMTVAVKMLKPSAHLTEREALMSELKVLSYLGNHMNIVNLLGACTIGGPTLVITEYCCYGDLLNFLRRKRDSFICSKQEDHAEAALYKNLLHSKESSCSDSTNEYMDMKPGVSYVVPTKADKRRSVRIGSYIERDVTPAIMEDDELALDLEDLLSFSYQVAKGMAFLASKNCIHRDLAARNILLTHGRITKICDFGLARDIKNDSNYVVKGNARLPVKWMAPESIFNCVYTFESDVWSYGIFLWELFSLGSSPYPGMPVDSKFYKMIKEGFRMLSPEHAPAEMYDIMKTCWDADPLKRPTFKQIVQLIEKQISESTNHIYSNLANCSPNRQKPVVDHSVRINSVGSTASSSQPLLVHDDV

In this assay the target is c-Kit kinase (Homo sapiens, UniProt P10721). Nature of the assay: c-Kit biochemical activity assay (AlphaScreen). Conditions: biotinylated poly(Glu, Tyr) substrate, 1 hr at ambient temperature. On the procedure:
Kinase activity and compound inhibition are investigated using one or more of the three assay formats described below. The ATP concentrations for each assay are selected to be close to the Michaelis-Menten constant (KM) for each individual kinase. Dose-response experiments are performed at 10 different inhibitor concentrations in a 384-well plate format. The data are fitted to four-parameter equation (2) below; where Y is the observed signal, X is the inhibitor concentration, Min is the background signal in the absence of enzyme (0% enzyme activity), Max is the signal in the absence of inhibitor (100% enzyme activity), IC50 is the inhibitor concentration at 50% enzyme inhibition and H represents the empirical Hill's slope to measure the cooperativity. Typically H is close to unity. Y=Min+(Max−Min)/(1+(X/IC50)^H) Equation (2) c-Kit Assay
c-Kit biochemical activity was assessed using AlphaScreen™ (Perldn Elmer) technology, described above. Test compounds, ATP, biotinylated poly(Glu, Tyr) and c-Kit kinase were combined in a volume of 20 μL in a 384-well white, medium binding microtiter plate (Greiner). Reaction mixtures were incubated for 1 hr at ambient temperature. Reactions were quenched by addition of 10 μL of 15-30 mg/mL AlphaScreen bead suspension containing 75 mM Hepes, pH 7.4, 300 mM NaCl, 120 mM EDTA, 0.3% BSA and 0.03% Tween-20. After 16 hr incubation at ambient temperature plates were read using an AlphaQuest reader (Perkin Elmer).
Usually pIC50 stands for −log10 of the IC50, conventionally taken in molar units. For `Nc1ncc(-c2ccc(CNC(=O)Nc3ccc(Cl)c(C(F)(F)F)c3)cc2)nc1C(=O)NC1CCCNC1` (centres unmarked) [Example 242, 3-amino-6-(4-{[({[4-chloro-3-(trifluoromethyl)phenyl]amino}carbonyl)amino]methyl}phenyl)-N-piperidin-3-ylpyrazine-2-carboxamide], the negative logarithm of the IC50 (pIC50) is 6.30 to 7.30. For `CC(C)(C)OC(=O)N1CCN(C(=O)c2nc(-c3cccc(CNC(=O)Nc4ccc(Cl)c(C(F)(F)F)c4)c3)cnc2N)CC1` [Example 243, 1,1-dimethylethyl 4-{[3-amino-6-(3-{[({[4-chloro-3-(trifluoromethyl)phenyl]amino}carbonyl)amino]methyl}phenyl)pyrazin-2-yl]carbonyl}piperazine-1-carboxylate] the value was 5.30 to 6.30; for `CC(C)(C)OC(=O)N1CCN(C(=O)c2nc(-c3ccc(CNC(=O)Nc4ccc(Cl)c(C(F)(F)F)c4)cc3)cnc2N)CC1` [Example 244, 1,1-dimethylethyl 4-{[3-amino-6-(4-{[({[4-chloro-3-(trifluoromethyl)phenyl]amino}carbonyl)amino]methyl}phenyl)pyrazin-2-yl]carbonyl}piperazine-1-carboxylate], 5.30 to 6.30. Molecule `Nc1ncc(-c2cccc(CNC(=O)Nc3ccc(Cl)c(C(F)(F)F)c3)c2)nc1C(=O)N1CCNCC1` [Example 245, N-({3-[5-amino-6-(piperazin-1-ylcarbonyl)pyrazin-2-yl]phenyl}methyl)-N′-[4-chloro-3-(trifluoromethyl)phenyl]urea] had a pIC50 of 5.30 to 6.30. In the case of `Nc1ncc(-c2ccc(CNC(=O)Nc3ccc(Cl)c(C(F)(F)F)c3)cc2)nc1C(=O)N1CCNCC1` [Example 246, N-({4-[5-amino-6-(piperazin-1-ylcarbonyl)pyrazin-2-yl]phenyl}methyl)-N′-[4-chloro-3-(trifluoromethyl)phenyl]urea], the pIC50 was 5.30 to 6.30. The molecule `O=C(NCc1cccc(-c2cn[nH]c2)c1)Nc1ccc(Cl)c(C(F)(F)F)c1` [Example 247, N-[4-chloro-3-(trifluoromethyl)phenyl]-N′-{[3-(1H-pyrazol-4-yl)phenyl]methyl}urea] showed a pIC50 of 6.30 to 7.30. Consider `O=C(NCc1ccc(-c2cn[nH]c2)cc1)Nc1ccc(Cl)c(C(F)(F)F)c1` [Example 248, N-[4-chloro-3-(trifluoromethyl)phenyl]-N′-{[4-(1H-pyrazol-4-yl)phenyl]methyl}urea], for which the pIC50 was 5.30 to 6.30. In the case of `O=C(Nc1ccc(Cl)c(C(F)(F)F)c1)OCc1cccc(-c2cnc(N3CCNCC3)nc2)c1` [Example 249, [3-(2-piperazin-1-ylpyrimidin-5-yl)phenyl]methyl [4-chloro-3-(trifluoromethyl)phenyl]carbamate], the pIC50 was 5.30 to 6.30. For `O=C(Nc1ccc(Cl)c(C(F)(F)F)c1)OCc1ccc(-c2cnc(N3CCNCC3)nc2)cc1` [Example 250, [4-(2-piperazin-1-ylpyrimidin-5-yl)phenyl]methyl [4-chloro-3-(trifluoromethyl)phenyl]carbamate] the value was 5.30 to 6.30. For `O=C(NCc1cccc(-c2cccnc2Cl)c1)Nc1ccc(Cl)c(C(F)(F)F)c1` [Example 251, N-{[3-(2-chloropyridin-3-yl)phenyl]methyl}-N′-[4-chloro-3-(trifluoromethyl)phenyl]urea] the value was 6.30 to 7.30. In turn, `O=C(NCc1ccc(-c2cccnc2Cl)cc1)Nc1ccc(Cl)c(C(F)(F)F)c1` [Example 252, N-{[4-(2-chloropyridin-3-yl)phenyl]methyl}-N′-[4-chloro-3-(trifluoromethyl)phenyl]urea] gave a pIC50 of 5.30 to 6.30. For `O=C(NCc1cccc(-c2cccnc2F)c1)Nc1ccc(Cl)c(C(F)(F)F)c1` [Example 253, N-[4-chloro-3-(trifluoromethyl)phenyl]-N′-{[3-(2-fluoropyridin-3-yl)phenyl]methyl}urea] the value was 5.30 to 6.30. For `O=C(NCc1ccc(-c2cccnc2F)cc1)Nc1ccc(Cl)c(C(F)(F)F)c1` [Example 254, N-[4-chloro-3-(trifluoromethyl)phenyl]-N′-{[4-(2-fluoropyridin-3-yl)phenyl]methyl}urea] the value was 5.30 to 6.30. Take `O=C(Nc1cccc(C(F)(F)F)c1)OCc1cccc(-n2cnnn2)c1` [Example 255, [3-(1H-tetrazol-1-yl)phenyl]methyl [3-(trifluoromethyl)phenyl]carbamate]: the pIC50 is 6.30 to 7.30. In the case of `O=C(Nc1cccc(C(F)(F)F)n1)OCc1cccc(-n2cnnn2)c1` [Example 256, [3-(1H-tetrazol-1-yl)phenyl]methyl [6-(trifluoromethyl)pyridin-2-yl]carbamate], the pIC50 was 5.30 to 6.30. For `O=C(Nc1cc(C(F)(F)F)ccn1)OCc1cccc(-n2cnnn2)c1` [Example 257, [3-(1H-tetrazol-1-yl)phenyl]methyl [4-(trifluoromethyl)pyridin-2-yl]carbamate] the value was 6.30 to 7.30. For `CSc1ccc(-c2cccc(CNC(=O)Nc3ccc(Cl)c(C(F)(F)F)c3)c2)nc1` [Example 258, N-[4-chloro-3-(trifluoromethyl)phenyl]-N′-({3-[5-(methylthio)pyridin-2-yl]phenyl}methyl)urea] the value was 5.30 to 6.30; for `Cc1ccc(-c2cccc(COC(=O)Nc3ccc(Cl)c(C(F)(F)F)c3)c2)c(C)n1` [Example 259, [3-(2,6-dimethylpyridin-3-yl)phenyl]methyl [4-chloro-3-(trifluoromethyl)phenyl]carbamate], 5.30 to 6.30. For `COc1cncc(-c2cccc(COC(=O)Nc3ccc(Cl)c(C(F)(F)F)c3)c2)c1` [Example 260, {3-[5-(methyloxy)pyridin-3-yl]phenyl}methyl [4-chloro-3-(trifluoromethyl)phenyl]carbamate] the value was 6.30 to 7.30; for `O=C(Nc1ccc(Cl)c(C(F)(F)F)c1)OCc1cccc(-c2cccnc2)n1` [Example 261, 2,3′-bipyridin-6-ylmethyl [4-chloro-3-(trifluoromethyl)phenyl]carbamate], 5.30 to 6.30. Consider `O=C(Nc1ccc(Cl)c(C(F)(F)F)c1)OCc1cccc(-c2cncnc2)n1` [Example 262, (6-pyrimidin-5-ylpyridin-2-yl)methyl [4-chloro-3-(trifluoromethyl)phenyl]carbamate], for which the pIC50 is 5.30 to 6.30.

In turn, `O=C(NCc1cccc(-c2cncc3ccccc23)c1)Nc1ccc(Cl)c(C(F)(F)F)c1` [Example 263, N-[4-chloro-3-(trifluoromethyl)phenyl]-N′-[(3-isoquinolin-4-ylphenyl)methyl]urea] showed a pIC50 of 5.30 to 6.30.

Molecule `O=C(NCc1ccc(-c2cncc3ccccc23)cc1)Nc1ccc(Cl)c(C(F)(F)F)c1` [Example 264, N-[4-chloro-3-(trifluoromethyl)phenyl]-N′-[(4-isoquinolin-4-ylphenyl)methyl]urea] showed a pIC50 of 5.30 to 6.30. Molecule `O=C(Nc1cc(C(F)(F)F)ccn1)OCc1cccc(-n2cnnn2)n1` [Example 265, [6-(1H-tetrazol-1-yl)pyridin-2-yl]methyl [4-(trifluoromethyl)pyridin-2-yl]carbamate] had a pIC50 of 6.30 to 7.30. For `O=C(Nc1ccc(Cl)c(C(F)(F)F)c1)OCc1cccc(-c2cn[nH]c2)c1` [Example 266, [3-(1H-pyrazol-4-yl)phenyl]methyl [4-chloro-3-(trifluoromethyl)phenyl]carbamate] the value was more than 7.30; for `O=C(Nc1ccc(Cl)c(C(F)(F)F)c1)OCc1ccc(-c2cn[nH]c2)cc1` [Example 267, [4-(1H-pyrazol-4-yl)phenyl]methyl [4-chloro-3-(trifluoromethyl)phenyl]carbamate], 5.30 to 6.30.
